Results on two compounds are retold here after patent US7772218B2, “Synthesis of anti-estrogenic and other therapeutic steroids from 21-hydroxy-19-norpregna-4-en-3-one” (SRI International, priority 2000, dated 2010).

The term inhibition denotes the share of the control response that was lost under treatment.

For data set [1] the following is noted: rats; cited from earlier work.
For data set [2] the following is noted: in vivo, cited from earlier work.
A further data set has as its system human breast tumor cells. The note with it: cited from earlier work.
In a further data set the test system is human uterine tissue. The note with it: cited from earlier work.
The next data set deals with rat uterine tissue. As to conditions: cited from earlier work.
The conditions of data set [3]: rats; cited from earlier work. This is another data set of the same source.
The test system of the next data set is PC-3 cells. As to the kind of experiment: growth inhibition assay (MTT), androgen-independent human prostate cancer cells. The format is cell-based. As to conditions: concentrations of 5 μM or higher, 7 days of treatment, 575 nm. The method, then:
(§1) [drawing 32] was synthesized as described in Example 4 without methylation at the 7-position of the steroid nucleus. The compound was evaluated for its inhibitory effect on androgen-independent human prostate cancer cells, DU145 cells and PC-3 cells, in a standard in vitro androgen-independent human prostate cancer assay.
(§2) DU145 and PC-3 human prostate cancer cell lines were obtained from the American Type Culture Collection, Rockville, Md. Eagle's minimum essential medium, RPMI-1640 medium, fetal calf serum, nonessential amino acids, and sodium pyruvate were purchased from Sigma, St. Louis, Mo.
(§3) PC-3 cells were maintained in RPMI-1640 medium supplemented with 10% fetal calf serum (FCS) and DU145 cells in Eagle's minimum essential medium (MEM) supplemented with 10% FCS. 1% nonessential amino acids, and 1 mM pyruvate. All cells were cultured at 37° C. in a 5% CO2/ 95% air atmosphere in 100% humidity. […] After 7 days of treatment, viable cells in each well were measured using the MTT assay as described in “Cellular Proliferation Assay,” in Protocols and Applications, 3rd Edition (Promega Corporation). […]
(§4) The plate was kept at room temperature overnight and the blue color measured at 575 nm on an ELISA plate reader. Based on the optical density of samples treated with the test compound and that of the control, the inhibitory effect of SR 16312 was evaluated.

Another data set deals with DU145 cells. The description is as above. The format is cell-based. As to conditions: concentrations of 5 μM or higher, 7 days of treatment, 575 nm. The method, then: as §1, §2, §3, §4

Counter-ions that a name gives are not always drawn.

In the case of `CCN(CC)Cc1ccc(OCC[C@H]2CCC3C4C(CCC32C)c2ccc(O)cc2C[C@H]4C)c(OC)c1` (stereo partly drawn) [SR 16234, 3-hydroxy-7α-methyl-21-[2′-methoxy-4′-(diethylaminomethyl)-phenoxy]-19-norpregna-1,3,5(10)triene citrate], in data set [1], the “high-density lipoprotein (HDL) cholesterol levels” value is “increased” and the “low-density lipoprotein (LDL) cholesterol levels” value is “lowered”. Further, in data set [2] (po), the oral bioavailability entry was “good”. For the same compound, in data set [2], the absorption entry is given as “good” and the half-life result is “good”. The antagonist-antiestrogenic activity result with human breast tumor cells is given as “complete”. Further, the anti-uterotrophic antagonist activity entry with human uterine tissue was “complete”. Moreover, the anti-uterotrophic antagonist activity result in the data set on rat uterine tissue was “complete”. In addition, in data set [3], the “agonist-estrogenic activity in the skeletal system” value was “maintenance of bone and prevention of bone loss”.

On to `CCN(CC)Cc1ccc(OCC[C@H]2CCC3C4CCC5=CC(=O)CCC5C4CCC32C)c(OC)c1` (some centres unmarked) [SR 16312], for which the inhibition in the data set with PC-3 cells and in the data set on DU145 cells was around 100% each time.
